Here are results for ten molecules from ChEMBL document CHEMBL1201862, “PubChem BioAssay data set” (2004).

Calls of active or inactive are those of the source.

Assay [1] is described as follows: THP-1 cell cytotoxicity, dose response, cytotoxicity control for non-replicating M. tuberculosis project (AID 489025). Type of assay: functional.
A further assay concerns INS1. Nature of the assay: INS-1E survival protection against cytokine death – cell-based, luminescence, retest, dose response (AID 449756).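 Also: cell death triggered by IL-1 beta plus TNF-alpha plus IFN-gamma mixture; protective hits raise ATP signal compared with cytokine alone wells.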 Format: functional. Conditions: Rattus norvegicus, INS1.
Assay [2] is described as follows: cells. Format: functional, cell-based.
The nature of assay [3]: cells. Format: functional.
A short description of assay [4]: cells. Type of assay: functional, cell-based. This is another data set of the same source.
Assay [5] concerns the target T1, Ubiquitin-conjugating enzyme E2 N (Homo sapiens, UniProt P61088).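 Also: Dose-response confirmation in a TR-FRET assay detecting UBC13-driven polyubiquitin chain formation, inhibition measured.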
T1 sequence (P61088 whole entry): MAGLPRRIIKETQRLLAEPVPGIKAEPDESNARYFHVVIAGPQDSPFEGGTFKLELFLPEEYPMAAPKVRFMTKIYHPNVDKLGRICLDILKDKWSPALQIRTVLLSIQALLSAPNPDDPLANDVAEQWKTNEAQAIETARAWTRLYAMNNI
Format: functional.

A further assay has as its target T2, Bcl-2-related protein A1 (Mus musculus, UniProt Q07440).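 Also: confirmatory dose–response counterscreen on Bfl-1, used to check hits from a UBC13 polyubiquitin inhibitor campaign.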
T2 sequence (Q07440 whole entry): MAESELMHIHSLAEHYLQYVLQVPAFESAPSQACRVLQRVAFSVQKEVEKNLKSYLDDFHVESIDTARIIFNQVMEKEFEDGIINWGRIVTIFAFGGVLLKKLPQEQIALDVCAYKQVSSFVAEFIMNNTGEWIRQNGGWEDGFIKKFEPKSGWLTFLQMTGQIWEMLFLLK
Format: functional.

Assay [6] concerns the target T3, Rac GTPase-activating protein 1 (Homo sapiens, UniProt Q9H0H5).
T3 sequence (Q9H0H5 whole entry): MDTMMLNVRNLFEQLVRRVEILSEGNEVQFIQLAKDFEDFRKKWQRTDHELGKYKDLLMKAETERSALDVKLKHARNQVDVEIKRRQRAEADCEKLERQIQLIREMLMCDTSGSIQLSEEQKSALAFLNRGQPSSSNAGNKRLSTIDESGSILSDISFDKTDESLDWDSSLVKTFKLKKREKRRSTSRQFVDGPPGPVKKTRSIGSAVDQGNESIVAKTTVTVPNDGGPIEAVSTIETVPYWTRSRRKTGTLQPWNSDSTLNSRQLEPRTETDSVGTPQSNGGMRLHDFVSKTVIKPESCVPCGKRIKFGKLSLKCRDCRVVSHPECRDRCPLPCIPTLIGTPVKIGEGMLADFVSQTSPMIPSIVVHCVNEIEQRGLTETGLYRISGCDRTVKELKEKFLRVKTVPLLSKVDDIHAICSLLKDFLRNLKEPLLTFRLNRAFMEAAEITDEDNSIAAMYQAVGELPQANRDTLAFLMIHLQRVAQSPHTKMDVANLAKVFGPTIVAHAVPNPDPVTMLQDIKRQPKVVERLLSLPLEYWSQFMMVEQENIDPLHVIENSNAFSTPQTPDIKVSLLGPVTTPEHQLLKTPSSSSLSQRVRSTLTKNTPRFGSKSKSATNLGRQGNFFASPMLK
Nature of the assay: blockers of MgcRacGAP-driven Rac1 GTP hydrolysis – biochemical, ADP Hunter fluorescence, primary and confirmatory, confirmation (AID 624330). Format: functional.

Assay [7] is described as follows: A Cell Based Secondary Assay To Explore Cytotoxicity of Compounds that Sensitize Mycobacterium Tuberculosis to Beta-Lactam Antibiotics. Type of assay: functional.
Assay [8] can be described thus: Luminescence Cell-Based Dose Confirmation HTS to Identify Activators of 5'UTR Stem-Loop Driven Alpha-Synuclein mRNA Translation in H4 Neuroglioblastoma Cells. [Related pubchem assays: 1829 (Project Summary), 1814 (Primary HTS)]. Type of assay: functional.
The next assay relates to H4. Nature of the assay: Luminescence Cell-Based Dose Response HTS to Identify Activators of 5'UTR Stem-Loop Driven Prion Protein mRNA Translation in H4 Neuroglioblastoma Cells. [Related pubchem assays: 1829 (Project Summary), 1814 (Primary HTS)]. Type of assay: functional. The conditions noted are these: Homo sapiens.
Assay [9] is described as follows: Luminescence Cell-Based Dose Response HTS to Identify Activators of Luciferase Translation or Activity in H4 […] Cells. [Related pubchem assays: 1829 (Project Summary), 1814 (Primary HTS)]. Format: functional.
The nature of assay [10]: Trypanosoma cruzi growth suppression in host cells – NIH3T3 host cells, beta-gal luminescence, confirmation (AID 2044).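 Also: intracellular parasites grown in NIH/3T3 mouse fibroblasts as host cells; luminescent beta-galactosidase reporter signal from transgenic T. cruzi replicating inside host cells; inhibitors lower the luminescence signal.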 Type of assay: functional, cell-based.
For assay [11], the target named is T4, Microphthalmia-associated transcription factor (Homo sapiens, UniProt O75030).
T4 sequence (O75030 whole entry): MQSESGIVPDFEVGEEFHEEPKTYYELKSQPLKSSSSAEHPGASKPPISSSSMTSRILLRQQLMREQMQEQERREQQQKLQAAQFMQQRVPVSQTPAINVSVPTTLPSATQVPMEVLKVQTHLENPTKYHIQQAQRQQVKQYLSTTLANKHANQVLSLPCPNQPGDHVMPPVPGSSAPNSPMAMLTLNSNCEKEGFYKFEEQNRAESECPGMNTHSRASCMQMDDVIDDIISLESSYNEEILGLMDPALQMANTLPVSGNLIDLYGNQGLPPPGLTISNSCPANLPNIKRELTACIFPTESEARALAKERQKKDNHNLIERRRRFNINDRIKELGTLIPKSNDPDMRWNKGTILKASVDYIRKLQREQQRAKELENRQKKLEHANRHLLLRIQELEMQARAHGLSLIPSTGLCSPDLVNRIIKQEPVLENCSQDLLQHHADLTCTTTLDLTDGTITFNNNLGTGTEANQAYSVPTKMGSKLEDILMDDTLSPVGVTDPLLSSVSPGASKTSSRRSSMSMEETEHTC
Nature of the assay: reducers of TRPM1 reporter luminescence, concentration series – cell-based, SK-MEL-5, cherry-picked, set 3, MITF inhibitor project, dose response (AID 493073).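 Also: SK-MEL-5 melanoma cells with luciferase driven by the MITF target TRPM1 promoter.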 Format: functional.

Assay [12] in a line: NIH3T3 cell viability loss – ATP luminescence, mouse fibroblasts, counter-screen, dose response (AID 2010).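 Also: cells exposed to compound for about 90 hours before reading.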 Format: functional, cell-based. On the technique in general: A counterscreen serves to expose hits that act by an unwanted route or on another target.
The nature of assay [13]: Luminescence-based counterscreen assay for KLF5 inhibitors: dose response cell-based high throughput screening assay to identify cytotoxic compounds using the IEC-6 intestinal epithelial cell line. [Related pubchem assays: 1700 (Primary screen.), 1834 (Confirmation screen.), 1858 (Summary AID.), 1905 (Counterscreen.)]. Format: functional.
In the next assay the test system is Streptococcus. Nature of the assay: GAS UMAA2166 growth inhibition – luminescence, BacTiterGlo, counter-screen for streptokinase expression inhibitor project, dose response (AID 1915).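 Also: potency for reduction of bacterial viability or growth.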 Type of assay: functional, organism-based.
Another assay has as its target T5, Streptokinase A (Streptococcus pyogenes serotype M1, UniProt P10520).
T5 sequence (P10520 whole entry): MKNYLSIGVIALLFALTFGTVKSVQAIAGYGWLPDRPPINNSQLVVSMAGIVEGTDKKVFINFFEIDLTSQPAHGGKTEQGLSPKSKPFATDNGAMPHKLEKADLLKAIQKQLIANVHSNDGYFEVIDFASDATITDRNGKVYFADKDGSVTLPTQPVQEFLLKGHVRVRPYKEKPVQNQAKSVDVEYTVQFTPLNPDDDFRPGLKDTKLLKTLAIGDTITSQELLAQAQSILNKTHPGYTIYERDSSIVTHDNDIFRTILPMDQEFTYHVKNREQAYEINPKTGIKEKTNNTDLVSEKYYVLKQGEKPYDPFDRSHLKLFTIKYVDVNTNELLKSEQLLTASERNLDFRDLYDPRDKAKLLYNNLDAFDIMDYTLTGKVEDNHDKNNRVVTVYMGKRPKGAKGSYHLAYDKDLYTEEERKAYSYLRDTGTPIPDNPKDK
The assay can be described thus: viability-normalized secreted streptokinase activity reduction – plasminogen activation absorbance, OD405, dose response (AID 1914).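 Also: secreted streptokinase activity via plasminogen activation per viability signal from cell pellet.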 Type of assay: functional, Streptococcus pyogenes M1 GAS.

Assay [14] is described as follows: microbe, parasite or virus in culture. Format: functional. Conditions: Mycobacterium tuberculosis.
The test system of assay [15] is Streptococcus sp. 'group A'. Nature of the assay: Streptococcus pyogenes SK(-)GAS viability under kanamycin – luminescence, BacTiterGlo, confirmation, counter-screen for streptokinase expression inhibitor project, dose response (AID 1900). Format: functional, organism-based.
Assay [16] has as its target DNA damage-inducible transcript 3 protein (Mus musculus, UniProt P35639). Type of assay: functional, Cricetulus griseus.

As a reminder, the AC50 is the midpoint of the concentration-response curve, whichever way the signal moves. Usually EC50 stands for the concentration that produces a half-maximal response. Broadly, the IC50 is the point on the concentration scale where inhibition reaches its midpoint.

Chain of DNA damage-inducible transcript 3 protein (P35639 whole entry): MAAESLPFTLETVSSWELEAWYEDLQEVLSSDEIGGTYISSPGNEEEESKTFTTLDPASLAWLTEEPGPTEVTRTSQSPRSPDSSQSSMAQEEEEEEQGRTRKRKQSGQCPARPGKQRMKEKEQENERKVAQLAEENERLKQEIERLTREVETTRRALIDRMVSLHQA

`COc1cccc(CN2CCC(N(CCc3ccccc3)Cc3ccccc3)CC2)c1OC`: the CC50 in assay [1] was > 40 µM (active). Also, the AC50 in the assay on INS1 is 11.4 µM (active). Further, the EC50 in “cells [2]” and in “cells [4]” was > 350 µM (not active) each time. The IC50 in “cells [3]” was 25.2 µM (active).

With `C#CCOCCOCCOCCNc1nc(N2CCN(C(=O)C([C@@H](C)O)n3cc([C@@H](N)CCCCN)nn3)CC2)nc(N2CCN(C(=O)[C@H](CCCCN)n3cc(CN)nn3)CC2)n1` (stereo partly specified), the IC50 is 3.7 µM (active) in assay [5], > 20 µM (inactive) on Bcl-2-related protein A1 and 171 µM (active) in assay [6].

Take `O=C(NCc1cccs1)c1cc(-c2ccccc2)nc2ccccc12`: in [7], the CC50 was > 40 µM (active).

`CCOC(=O)c1sc2ccccc2c1NC(=O)c1coc2ccccc2c1=O`: the EC50 in assay [8] is > 120 µM (not active); in the assay with H4, > 120 µM (not active); in assay [9], 16.9 µM (active). For the same molecule, the CC50 in assay [7] is > 40 µM (active).

Regarding `COc1ccc(NC(C)C(=O)N/N=C/c2ccc([N+](=O)[O-])s2)cc1` (stereo unspecified), the EC50 in [10] is 0.414 µM (active); in assay [12], > 60 µM (inconclusive). In addition, the AC50 in [11] was 15.8 µM (active). Moreover, the CC50 in assay [7] was 21.8 µM (active).

`Cn1cccc1-c1cc(C(=O)N/N=C/c2cc(Br)ccc2O)[nH]n1`: the AC50 in assay [11] was 5.25 µM (active). Also, the EC50 in “cells [2]” was > 350 µM (not active); in the assay “cells [4]”, 8.69 µM (active). Also, the IC50 in [13] was 13.4 µM (not active).

Take `Cc1cc(N2CCC(C)CC2)nc(-n2nc(C)cc2C)n1`: the EC50 was > 150 µM (not active) in the assay with Streptococcus, > 150 µM (not active) on Streptokinase A and 7.26 µM (active) in assay [15]. The CC50 in assay [1] and in [14] was > 40 µM (active) each time. Also, the IC50 in “cells [3]” was 0.15 µM (active).

In the case of `CCO[C@H]1OC(C(=O)NCc2nc3ccccc3[nH]2)=C[C@@H](c2ccc(C(F)(F)F)cc2)[C@@H]1CCCO`, in assay [7], the CC50 is > 40 µM (active).

In the case of `CCOc1ccc2nc(NC(=O)CSc3nnnn3C3CCCCC3)sc2c1`, the figures for the EC50 in assay [10] and in assay [12] were 2.14 µM (active) and > 30 µM (not active), respectively. The “Absolute IC50 (CHOP)” value in assay [16] was 10 µM.

As to `CCc1ccc(N2NC(=O)/C(=C/C=C/c3ccco3)C2=O)cc1`, the EC50 in [8] was 14.8 µM (active); in the assay on H4 it was 14.3 µM (active); in assay [9], 48 µM (active). The CC50 in assay [1] was > 40 µM (active). Besides, the half-maximal inhibitory concentration (IC50) in the assay “cells [3]” was 12.1 µM (active).
